The values that follow come from paper PMC5654082 (Malaria Journal, 2017).

What is called IC50 is the midpoint of a concentration-inhibition curve. A word on the Cmax: it is the maximum level reached in the sampled fluid or tissue. A word on the Ki: it is a measure of affinity in units of concentration, obtained from inhibition or displacement. Broadly, the Km is the substrate concentration at which the rate is half of its maximum.

Like-named read-outs stand apart in the source and are kept apart here. Marks after values point to notes of the source that are not given here.

The conditions of series [1]: cited from earlier work.
The conditions of series [2]: cited from earlier work. The source holds these as a separate data set.
The next series relates to OCT1. On the set-up: method as in PMID 25914645. To be noted: read-out: Absolute IC50 for OCT1; cited from earlier work.
For a further series, the target named is T1, human OCT1 (Homo sapiens, UniProt O15245).
T1 construct: host or cells: HEK293, baculovirus transduction (CMV promoter), transient
T1 sequence (O15245 1-554): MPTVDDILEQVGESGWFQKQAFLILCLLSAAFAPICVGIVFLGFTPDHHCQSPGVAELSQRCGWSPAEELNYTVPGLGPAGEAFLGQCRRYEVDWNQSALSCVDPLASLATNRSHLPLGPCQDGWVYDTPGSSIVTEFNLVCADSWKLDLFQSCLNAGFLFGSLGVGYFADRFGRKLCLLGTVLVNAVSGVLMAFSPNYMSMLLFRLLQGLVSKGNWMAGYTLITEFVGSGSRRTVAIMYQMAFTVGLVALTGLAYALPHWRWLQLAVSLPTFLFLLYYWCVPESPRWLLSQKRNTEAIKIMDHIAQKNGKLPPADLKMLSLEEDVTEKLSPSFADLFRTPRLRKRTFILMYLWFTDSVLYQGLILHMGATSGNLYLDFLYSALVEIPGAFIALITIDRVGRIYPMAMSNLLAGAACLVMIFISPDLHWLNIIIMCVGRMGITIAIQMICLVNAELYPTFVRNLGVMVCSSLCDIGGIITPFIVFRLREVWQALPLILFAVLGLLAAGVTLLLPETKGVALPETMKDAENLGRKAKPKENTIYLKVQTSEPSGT
The series is described as follows: Inhibition of OCT1-mediated ASP uptake in transduced HEK293 cells. It is filed as cell-based. The conditions noted are these: 50 µM anti-malarial, 10 µM ASP, 10 min, 37 °C; relative to solvent control fixed at 100%. Here is the method: (§1) HEK293 cells were modified to transiently express (a combination of) human OCT1, OCT2, MATE1, MATE2-K, or eYFP. Briefly, cDNA of the respective genes was cloned downstream of a CMV promoter into a baculovirus, of which passage three was used to transduce HEK293 cells. These cells were seeded in poly-D-lysine coated 24- or 96-wells plates and grown in a 37 °C incubator at 5% CO2. Growth was initiated at ~ 25% confluency using 375 or 125 μL cell and complete medium (DMEM + GlutaMAX™-I supplemented with 10% fetal bovine serum) suspension per well, respectively. After 24 h, cells were transduced with 30 µL virus (10 µL virus + 20 µL complete medium in case of 96-wells plates) or 2 × 15 µL virus for cells that required simultaneous expression of two transporters. Finally, 195 µL sodium butyrate (45 µL for 96-wells plates) was added to a final concentration of 2 mM to enhance protein expression.
AMO (10 mM), ASP (1 mM), CQ (10 mM), PQ (10 mM) and PG (10 mM) were dissolved in MilliQ water. ART (10 mM), ATO (10 mM), DHA (10 mM), LUM (10 mM), MQ (10 mM), NMQ (20 mM), PYR (10 mM), QN (10 mM) were dissolved in DMSO. All compound stocks were stored at − 20 °C. Inhibition of OCT1- or OCT2-mediated ASP uptake by anti-malarials was performed in poly-D-lysine coated 96-wells plates 2 or 3 days following HEK293 cell transduction. In short, cells were washed with 125 µL 37 °C HBSS containing 10 mM HEPES, pH 7.4. Then, a 50 µL mixture of ASP (10 µM) and anti-malarial compound (25, 50 or 100 µM) in HBSS buffer (pH 7.4) was added to each well and incubated for 10 min at 37 °C. ASP transport was stopped by washing with 125 µL ice-cold HBSS-HEPES buffer supplemented with 0.5% BSA. Following a second wash with 125 µL ice-cold HBSS-HEPES buffer, cells were lysed with 125 µL 1 M NaOH and ASP was excited at a wavelength of 485 nm and fluorescence was detected at an emission wavelength of 535 nm using the Victor X3 multimode plate reader.
For each compound, a range of seven concentrations was used to determine the concentration at which ASP uptake was inhibited half maximally (IC50). At least three independent experiments (4 for QN) were performed for each drug in triplicate as described above. Inhibition curves were plotted by nonlinear regression analyses of the data using GraphPad Prism version 5.03. […] To generate the final dose–response inhibition curve per anti-malarial, percentage of uptake was averaged for each drug concentration per experiment and the resulting mean ± SEM corresponding to three or four independent experiments were plotted.

The target of series [3] is T2, human OCT2 (Homo sapiens, UniProt O15244).
T2 construct: host or cells: HEK293, baculovirus transduction (CMV promoter), transient
T2 sequence (O15244 1-555): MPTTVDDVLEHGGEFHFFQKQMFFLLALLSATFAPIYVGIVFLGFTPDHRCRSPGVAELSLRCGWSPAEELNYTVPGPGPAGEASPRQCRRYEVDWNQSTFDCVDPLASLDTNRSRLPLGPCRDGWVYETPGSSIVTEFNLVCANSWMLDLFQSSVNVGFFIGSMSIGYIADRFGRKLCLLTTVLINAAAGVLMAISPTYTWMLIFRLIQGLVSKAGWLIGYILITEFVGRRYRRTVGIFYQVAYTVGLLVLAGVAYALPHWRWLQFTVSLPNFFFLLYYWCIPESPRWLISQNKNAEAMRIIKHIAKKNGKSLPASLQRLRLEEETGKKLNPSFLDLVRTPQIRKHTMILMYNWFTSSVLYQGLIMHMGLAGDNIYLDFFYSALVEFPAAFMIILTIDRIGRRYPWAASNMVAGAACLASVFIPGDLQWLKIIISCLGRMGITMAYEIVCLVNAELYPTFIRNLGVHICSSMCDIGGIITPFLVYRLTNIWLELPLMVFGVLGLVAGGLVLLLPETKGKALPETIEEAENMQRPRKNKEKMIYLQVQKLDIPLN
In words: Inhibition of OCT2-mediated ASP uptake in transduced HEK293 cells. The conditions noted are these: 10 µM ASP, 10 min, 37 °C. It is filed as cell-based. Here is the method:
as §1, with “Growth was initiated at ~ 25% confluency using 375 or 125 μL cell and complete medium (DMEM + GlutaMAX™-I supplemented with 10% fetal bovine serum) suspension per well, respectively.” left out
AMO (10 mM), ASP (1 mM), CQ (10 mM), PQ (10 mM) and PG (10 mM) were dissolved in MilliQ water. ART (10 mM), ATO (10 mM), DHA (10 mM), LUM (10 mM), MQ (10 mM), NMQ (20 mM), PYR (10 mM), QN (10 mM) were dissolved in DMSO. All compound stocks were stored at − 20 °C. Inhibition of OCT1- or OCT2-mediated ASP uptake by anti-malarials was performed in poly-D-lysine coated 96-wells plates 2 or 3 days following HEK293 cell transduction. In short, cells were washed with 125 µL 37 °C HBSS containing 10 mM HEPES, pH 7.4. […] ASP transport was stopped by washing with 125 µL ice-cold HBSS-HEPES buffer supplemented with 0.5% BSA.
For each compound, a range of seven concentrations was used to determine the concentration at which ASP uptake was inhibited half maximally (IC50). At least three independent experiments (4 for QN) were performed for each drug in triplicate as described above. […] To generate the final dose–response inhibition curve per anti-malarial, percentage of uptake was averaged for each drug concentration per experiment and the resulting mean ± SEM corresponding to three or four independent experiments were plotted.

The nature of series [4]: Maximum plasma concentration from in vivo pharmacokinetic studies after therapeutic dosing. The conditions noted are these: human, the literature Cmax (ng/mL) of Table 2 expressed in µM. The source says:
As Cmax the (geometric) mean or median maximum plasma concentrations obtained from previous in vivo pharmacokinetic studies after therapeutic dosing was used.

The subject of another series is OCT2. On the set-up: method as in PMID 20053795. The conditions noted are these: 50 µM; HeLa cells, metformin as substrate; cited from earlier work.
Series [5] concerns the target T2, human OCT2. Also noted: method as in PMID 21544077. To be noted: HEK293 cells stably expressing human OCT2; read-out: Ki for OCT2-mediated MET uptake; cited from earlier work.
Substrate in series [6]: [H]/N=C(\N/C(=N/[H])Nc1ccc(Cl)cc1)NC(C)C
The series is described as follows: OCT2-mediated cellular import in transduced HEK293 cells (LC-MS/MS). It is filed as cell-based, human. The conditions noted are these: other: 1 min incubation, 37 °C, 2.0–16 µM, pH 7.4. The protocol:
HEK293 cells were modified to transiently express (a combination of) human OCT1, OCT2, MATE1, MATE2-K, or eYFP. Briefly, cDNA of the respective genes was cloned downstream of a CMV promoter into a baculovirus, of which passage three was used to transduce HEK293 cells. These cells were seeded in poly-D-lysine coated 24- or 96-wells plates and grown in a 37 °C incubator at 5% CO2. Growth was initiated at ~ 25% confluency using 375 or 125 μL cell and complete medium (DMEM + GlutaMAX™-I supplemented with 10% fetal bovine serum) suspension per well, respectively. […]
HEK293 cells were seeded in 24-wells poly-D-lysine coated plates and transduced the subsequent day with OCT1 or OCT2 as described above. […] Following a second wash with 400 µL ice-cold HBSS-HEPES buffer, cells were lysed with 200 µL 50% (v/v) MeOH and 0.1% (v/v) formic acid (HCOOH) in water and samples were sent for quantification by mass spectrometry analysis (see “LC–MS/MS quantification of anti-malarials” section). […]
The affinity (KM) and maximum transport rate (Vmax) for OCT1 and OCT2 of PG were determined by analysing concentration-dependent uptake data from three independent experiments.
Import and export of PG and cycloguanil (CG) was assessed by single and double transduced HEK293 cells. […]

With `O=C1Nc2ccc(Cl)cc2[C@@](C#CC2CC2)(C(F)(F)F)O1` [EFV, efavirenz], the Maximum plasma concentration in [1] was 13 µM. Besides, in series [2], the Unbound in plasma entry is on record as “about 0.22%” and the “Unbound maximum plasma concentration” value is 0.03 µM. Moreover, in the series on OCT1, the IC50 was 22 µM.

For the molecule `CCc1nc(N)nc(N)c1-c1ccc(Cl)cc1` [Pyrimethamine, pyrimethamine], the “Relative ASP uptake (OCT1-mediated)” value at human OCT1 was 59 ± 6%. At human OCT2 [3] (seven concentrations), the IC50 was 1.6 µM. In addition, the “Relative ASP uptake (OCT2-mediated)” value on human OCT2 [3] (50 µM anti-malarial, relative to solvent control fixed at 100%) was 6 ± 2%. Further, the Cmax in series [4] is 1.1 µM; in series [1] (patients with acute falciparum malaria, (geometric) mean or median) it was 281^e [48] ng/mL. Also, in [2], the Unbound fraction is 0.06 [49]. For the same molecule, the “Reduction of OCT2 activity” value with OCT2 is on record as 60%. Moreover, at human OCT2 [5], the Ki was 10 µM.

B1: human OCT2 (Homo sapiens) (protein)
chain: MPTTVDDVLEHGGEFHFFQKQMFFLLALLSATFAPIYVGIVFLGFTPDHRCRSPGVAELSLRCGWSPAEELNYTVPGPGPAGEASPRQCRRYEVDWNQSTFDCVDPLASLDTNRSRLPLGPCRDGWVYETPGSSIVTEFNLVCANSWMLDLFQSSVNVGFFIGSMSIGYIADRFGRKLCLLTTVLINAAAGVLMAISPTYTWMLIFRLIQGLVSKAGWLIGYILITEFVGRRYRRTVGIFYQVAYTVGLLVLAGVAYALPHWRWLQFTVSLPNFFFLLYYWCIPESPRWLISQNKNAEAMRIIKHIAKKNGKSLPASLQRLRLEEETGKKLNPSFLDLVRTPQIRKHTMILMYNWFTSSVLYQGLIMHMGLAGDNIYLDFFYSALVEFPAAFMIILTIDRIGRRYPWAASNMVAGAACLASVFIPGDLQWLKIIISCLGRMGITMAYEIVCLVNAELYPTFIRNLGVHICSSMCDIGGIITPFLVYRLTNIWLELPLMVFGVLGLVAGGLVLLLPETKGKALPETIEEAENMQRPRKNKEKMIYLQVQKLDIPLN
notes: host or cells: HEK293, baculovirus transduction (CMV promoter), transient
As for B1, the Km in series [6] amounted to 9.0 µM.
